From US20240124389A1, “COMPOUND OR SALT THEREOF, LIPID PARTICLES, AND PHARMACEUTICAL COMPOSITION” (FUJIFILM Corporation, priority 2021, published 2024)

Assays:
[1] = Particle size of FLuc mRNA-encapsulating lipid particles; format: physicochemical; conditions: aminolipid 45 / DOPE 10 / cholesterol 43.5 / DMG-PEG2000 1.5 mol %, lipid/nucleic acid 32 wt/wt
Protocol: (§1) The compounds described in Table 2, the neutral lipid, cholesterol (product name: Cholesterol HP; NTPPON FINE CHEMICAL CO., LTD.), and 1,2-dimyristoyl-rac-glycero-3-(methylpolyoxyethylene 2000) (hereinafter, called DMG-PEG2000) were dissolved in ethanol at a molar ratio in Table 2 such that the total lipid concentration became 20 mmol/L, thereby obtaining an oil phase.
(§2) As the neutral lipid, 1,2-distearoyl-sn-glycero-3-phosphocholine (product name: COATSOME® MC-8080; NOF corporation) was used in a case of Comparative Example 1, and L-α-dioleoylphosphatidylethanolamine (product name: COATSOME® MC-8181; NOF corporation) was used in a case other than Comparative Example 1.
(§3) FLuc mRNA (product name: CleanCap FLuc mRNA (5 moU); TriLink) was diluted with 50 mmol/L citrate buffer having a pH 4 such that the weight ratio of total lipid concentration to mRNA concentration is about 19:1 to 64:1, obtaining a water phase. Then, the water phase and the oil phase were mixed together using NanoAssemblr (Precision NanoSystems) such that the volume ratio of water phase:oil phase was 3:1, and the mixed solution was 1.5-fold diluted with phosphate buffered saline (PBS), thereby obtaining a dispersion liquid of mRNA lipid particles. The dispersion liquid was dialyzed with a 10% aqueous sucrose solution using a dialysis cassette (Slide-A-Lyzer G2, MWCO: 10 kD, Thermo Fisher Scientific) to remove ethanol, thereby obtaining FLuc mRNA-encapsulating lipid particles.
(§4) The particle size of the mRNA-encapsulating lipid particles was measured by 10-fold diluting the dispersion liquid of lipid particle with phosphate buffered saline (PBS) using Zeta-potential & Particle size Analyzer ELS-Z2 (Otsuka Electronics Co., Ltd.).

FLuc mRNA = assay: mRNA encapsulation rate of FLuc mRNA-encapsulating lipid particles; format: physicochemical; conditions: aminolipid 45 / DOPE 10 / cholesterol 43.5 / DMG-PEG2000 1.5 mol %, lipid/nucleic acid 32 wt/wt
Protocol: as §1, §2, §3
(§5) 15 to 30 μL of a 3 mol/L aqueous sodium acetate solution and 4.5 to 9 μL of glycogen were added to 30 to 60 μL of the lipid particles retaining mRNA, and 0.75 to 1.5 mL of ethanol was added thereto, so that only the nucleic acids were precipitated while the lipid was dissolved. Then, the supernatant was removed by centrifugation. The precipitates were air-dried for 15 minutes or longer, then water was added thereto to redissolve the precipitates, and the concentration thereof was measured using Nanodrop NF1000 (Thermo Fisher Scientific), thereby quantifying the total mRNA concentration.
(§6) The mRNA concentration was quantified using a Quant-iT RiboGreen RNA Assay Kit (Thermo Fisher Scientific) according to the protocol. First, a 20×TE buffer included in the above-described kit was diluted with water, thereby obtaining a 1×TE buffer. TE represents Tris/EDTA (ethylenediaminetetraacetic acid). In order to quantify only mRNA in the outer water phase, the dispersion liquid of lipid particles retaining mRNA was 10,000-fold diluted with the 1×TE buffer. 100 μL of the 10,000-fold diluted dispersion liquid of lipid particles was put into a 96-well plate, then 100 μL of a RiboGreen reagent (reagent included in the Quanti-iT Ribogreen RNA Assay Kit described above) 2,000-fold diluted with the 1×TE buffer was added to a sample, and fluorescence (excitation wavelength: 485 nm, fluorescence wavelength: 535 nm) was measured using a plate reader Infinite F200 (TECAN), thereby quantifying the mRNA concentration in the outer water phase.
(§7) By using the quantification results of the total mRNA concentration and the mRNA concentration in the outer water phase that were obtained through the above steps, the mRNA encapsulation rate of the mRNA lipid particles was calculated according to the following Equation.
(§8) mRNA encapsulation rate (%)=(total mRNA concentration-mRNA concentration in outer water phase)/total mRNA concentration×100

human EPO = assay: Measurement of EPO enzyme activity (EPO protein in blood plasma of mice after intravenous administration of EPO mRNA lipid particles); format: in vivo; conditions: C57BL/6J mice, tail-vein i.v., mRNA 0.1 mg/kg, plasma 20 to 24 hours, lipid/nucleic acid 64 wt/wt
Protocol: as §1, with “Table 1,” for “Table 2,”, “HP; NIPPON” for “HP; NTPPON”, “DMG-PEG2000) (product name: SUNBRIGHT® GM-020; NOF corporation)” for “DMG-PEG2000)”, “Table 1” for “Table 2”
(§9) As the neutral lipid, 1,2-distearoyl-sn-glycero-3-phosphocholine (product name: COATSOME® MC-8080; NOF corporation) (hereinafter, DSPC), or L-α-dioleoyl phosphatidylethanolamine (Hereinafter, DOPE) (product name: COATSOME® ME-8181; NOF corporation), or 1,2-dioleoyl-sn-glycero-3-phosphocholine (hereinafter, DOPC) (product name: COATSOME® MC-8181; NOF corporation) was used.
as §3, with “EPO” for “FLuc”, “(5moU);” for “(5 moU);”, “16:1” for “19:1”, “64:1, thereby” for “64:1,”
The dispersion liquid of mRNA lipid particles prepared in above-described <Preparation of EPO mRNA-encapsulating lipid particles> was tail-vein intravenously administered to C57BL/6J mice at a mRNA dosage of 0.1 mg/kg. 20 to 24 hours after the administration, blood was collected from the caudal vena cava, thereby obtaining blood plasma. The human EPO enzyme activity was quantified by using the obtained blood plasma and ab119522 Erythropoietin (EPO) Human Elisa Kit (Abcam.plc). The quantitative value is described as a relative amount of EPO protein in a case where Comparative Example 1 is 1.

[2] = Particle size of EPO mRNA-encapsulating lipid particles; format: physicochemical; conditions: lipid/nucleic acid 64 wt/wt
Protocol: as §1, with “Table 1,” for “Table 2,”, “HP; NIPPON” for “HP; NTPPON”, “DMG-PEG2000) (product name: SUNBRIGHT® GM-020; NOF corporation)” for “DMG-PEG2000)”, “Table 1” for “Table 2”
as §9
as §3, with “EPO” for “FLuc”, “(5moU);” for “(5 moU);”, “16:1” for “19:1”, “64:1, thereby” for “64:1,”
as §4

EPO mRNA = assay: mRNA encapsulation rate of EPO mRNA-encapsulating lipid particles; format: physicochemical; conditions: lipid/nucleic acid 64 wt/wt
Protocol: as §1, with “Table 1,” for “Table 2,”, “HP; NIPPON” for “HP; NTPPON”, “DMG-PEG2000) (product name: SUNBRIGHT® GM-020; NOF corporation)” for “DMG-PEG2000)”, “Table 1” for “Table 2”
as §9
as §3, with “EPO” for “FLuc”, “(5moU);” for “(5 moU);”, “16:1” for “19:1”, “64:1, thereby” for “64:1,”
as §5, §6, §7, §8

[3] = aminolipid 50 / DOPE 10 / cholesterol 38.5 / DMG-PEG2000 1.5 mol %
[4] = aminolipid 45 / DOPE 10 / cholesterol 43.5 / DMG-PEG2000 1.5 mol %

Structure (SMILES)	Particle size [1]	Nucleic acid encapsulation rate (FLuc mRNA)	Particle size [2, 3]	Nucleic acid encapsulation rate (EPO mRNA; [3])	Particle size [2, 4]	Nucleic acid encapsulation rate (EPO mRNA; [4])	Relative amount of EPO protein (with respect to Comparative Example 1) (human EPO; [3])	Relative amount of EPO protein (with respect to Comparative Example 1) (human EPO; [4])
CCCCCC(CCCCC)COC(=O)CCCC(CCCC)OC(=O)OCCN(CCOC(=O)OC(CCCC)CCCC(=O)OCC(CCCCC)CCCCC)CCN(CC)CC (stereo not shown) [Example 22, Bis(2-pentylheptyl) 5,17-dibutyl-11-(2-(diethylamino)ethyl)-7,15-dioxo-6,8,14,16-tetraoxa-11-azahenicosanedioate]	95 nm	98.7%	78.3 nm	98.6%	–	–	4.69	–
CCCCCCCCOC(=O)CCCC(CCCC(=O)OCCCCCCCC)OC(=O)OCCN(CCOC(=O)OC(CCCC(=O)OCCCCCCCC)CCCC(=O)OCCCCCCCC)CCN(CC)CC [Example 33, Dioctyl 11-(2-(diethylamino)ethyl)-5,17-bis(4-(octyloxy)-4-oxobutyl)-7,15-dioxo-6,8,14,16-tetraoxa-1 1-azahenicosanedioate]	–	–	132.8 nm	88.8%	–	–	2.70	–
CCCCCCCCCOC(=O)CCCC(CCCC(=O)OCCCCCCCCC)OC(=O)OCCN(CCOC(=O)OC(CCCC(=O)OCCCCCCCCC)CCCC(=O)OCCCCCCCCC)CCN(CC)CC [Example 34, Dinonyl 11-(2-(diethylamino)ethyl)-5,17-bis(4-(nonyloxy)-4-oxobutyl)-7,15-dioxo-6,8,14,16-tetraoxa-11-azahenicosanedioate]	–	–	99.2 nm	100.0%	–	–	1.20	–
CCCCCCCOC(=O)CCCC(CCCC(=O)OCCCCCCC)OC(=O)OCCN(CCCN(CC)CC)CCOC(=O)OC(CCCC(=O)OCCCCCCC)CCCC(=O)OCCCCCCC [Example 38, Diheptyl 11-(3-(diethylamino)propyl)-5,17-bis(4-(heptyloxy)-4-oxobutyl)-7,15-dioxo-6,8,14,16-tetraox a-11-azahenicosanedioate]	116 nm	99.7%	101.4 nm	100.0%	–	–	2.13	–
CCCCCCSCCOC(=O)CCCC(CCCC(=O)OCCSCCCCCC)OC(=O)OCCN(CCOC(=O)OC(CCCC(=O)OCCSCCCCCC)CCCC(=O)OCCSCCCCCC)CCN(CC)CC [Example 43, Bis(2-(hexylthio)ethyl) 11-(2-(diethylamino)ethyl)-5,17-bis(4-(2-(hexylthio)ethoxy)-4-oxobutyl)-7,15-dioxo-6,8,14,16-tetraoxa-11-azahenicosanedioate]	144 nm	100.0%	–	–	155.0 nm	95.7%	–	3.12

Further lines, with some results ahead:

Particle size [1]	Nucleic acid encapsulation rate (FLuc mRNA)	Particle size [2, 3]	Nucleic acid encapsulation rate (EPO mRNA; [3])	Particle size [2, 4]	Nucleic acid encapsulation rate (EPO mRNA; [4])	Structure (SMILES)	Relative amount of EPO protein (with respect to Comparative Example 1) (human EPO; [3])	Relative amount of EPO protein (with respect to Comparative Example 1) (human EPO; [4])
141.1 nm	90.1%	147.2 nm	93.8%	–	–	CCCCCCCOC(=O)CCC(CCC(=O)OCCCCCCC)OC(=O)OCCN(CCOC(=O)OC(CCC(=O)OCCCCCCC)CCC(=O)OCCCCCCC)CCN(CC)CC [Example 39, Diheptyl 10-(2-(diethylamino)ethyl)-4,16-bis(3-(heptyloxy)-3-oxopropyl)-6,14-dioxo-5,7,13,15-tetraox a-10-azanonadecanedioate]	8.03	–
–	–	–	–	128.2 nm	98.9%	CCCCCCCCOC(=O)CCCC(CCCC(=O)OCCCCCCCC)OC(=O)OCCN(CCOC(=O)OC(CCCC(=O)OCCCCCC)CCCC(=O)OCCCCCC)CCN(CC)CC [Example 42]	–	4.28
170.5 nm	100.0%	–	–	201.9 nm	81.2%	CCN(CC)CCN(CCOC(=O)OC(CCCC(=O)OCCCCCCCCSC)CCCC(=O)OCCCCCCCCSC)CCOC(=O)OC(CCCC(=O)OCCCCCCCCSC)CCCC(=O)OCCCCCCCCSC [Example 44, Bis(8-(methylthio)octyl) 11-(2-(diethylamino)ethyl)-5,17-bis(4-((8-(methylthio)octyl)oxy)-4-oxobutyl)-7,15-dioxo-6,8,14,16-tetraoxa-11-azahenicosanedioate]	–	1.39
